In ChEMBL document CHEMBL3856279, “The discovery of new cytotoxic pyrazolopyridine derivatives” (Bioorg Med Chem Lett, 2016):

Columns and labels:
[1] = Antiproliferative activity against human SKOV3 cells after 48 hrs by MTS assay; assay type: functional, cell-based; conditions: SK-OV-3, 48 h
[2] = Antiproliferative activity against human WI38 cells after 48 hrs by MTS assay; assay type: cell-based; conditions: WI-38, 48 h
[3] = Antiproliferative activity against human MIAPaCa2 cells after 48 hrs by MTS assay; assay type: functional, cell-based; conditions: MIA PaCa-2, 48 h
[4] = Antiproliferative activity against human DU145 cells after 48 hrs by MTS assay; assay type: functional, cell-based; conditions: DU-145, 48 h
[5] = Cell cycle arrest in human PC3 cells assessed as accumulation at G2/M phase at antiproliferative IC50 after 48 hrs by propidium iodide staining based FACS analysis (reference value: 24 +/- 2.9%); assay type: functional; conditions: PC-3
[6] = Cell cycle arrest in human PC3 cells assessed as accumulation at S phase at antiproliferative IC50 after 48 hrs by propidium iodide staining based FACS analysis (reference value: 37.7 +/- 2.2%); assay type: functional; conditions: PC-3
[7] = Cell cycle arrest in human PC3 cells assessed as accumulation at G0/G1 phase at antiproliferative IC50 after 48 hrs by propidium iodide staining based FACS analysis (reference value: 38.3 +/- 0.7%); assay type: functional; conditions: PC-3
[8] = Antiproliferative activity against human PC3 cells after 48 hrs by MTS assay; assay type: functional, cell-based; conditions: PC-3, 48 h
[9] = Induction of apoptosis in human PC3 cells assessed as appearance of apoptotic nuclei at antiproliferative IC50 after 48 hrs by propidium iodide staining based FACS analysis (reference value: 0.7 +/- 0.1%); assay type: functional, PC-3
[10] = Antiproliferative activity against human A2058 cells after 48 hrs by MTS assay; assay type: functional, cell-based; conditions: A2058, 48 h

| SMILES | IC50 [1] [µM] | IC50 [2] [µM] | IC50 [3] [µM] | IC50 [4] [µM] | Activity [5] [%] | Activity [6] [%] | Activity [7] [%] | IC50 [8] [µM] | Activity [9] [%] | IC50 [10] [µM] |
| --- | --- | --- | --- | --- | --- | --- | --- | --- | --- | --- |
| COc1cc(Nc2nc(Cl)cc3cn[nH]c23)cc(OC)c1OC | 13.1 | > 50 | 16.2 |  |  |  |  |  |  |  |
| COc1cc(Nc2nccc3c(-c4ccccc4)n[nH]c23)cc(OC)c1OC | 0.73 | 14.9 | 3.8 | 0.92 | 19.2 | 0 | 80.8 | 0.38 | 25.8 | 0.89 |
| CC(C)c1n[nH]c2c(Nc3ccccc3)nc(Cl)cc12 | > 50 | 38.7 | 21.5 |  |  |  |  |  |  |  |
| COc1cc(Nc2nccc3cn[nH]c23)cc(OC)c1OC | > 50 | > 50 | > 50 |  |  |  |  |  |  |  |
| COc1cc(Nc2nc(Cl)cc3c(C(C)C)n[nH]c23)cc(OC)c1OC | 5.6 | 43.8 | 6.1 |  |  |  |  |  |  |  |
| CC(C)c1n[nH]c2c(Nc3ccccc3)nccc12 | 48.3 | > 50 | 41.2 |  |  |  |  |  |  |  |
| Clc1cc2c(-c3ccccc3)n[nH]c2c(Nc2ccccc2)n1 | 2.5 | 23.4 | 4.3 |  |  |  |  |  |  |  |
| COc1cc(Nc2nccc3c(C(C)C)n[nH]c23)cc(OC)c1OC | 22.9 | > 50 | 10 |  |  |  |  |  |  |  |
| c1ccc(Nc2nccc3c(-c4ccccc4)n[nH]c23)cc1 | 22.1 | 24.7 | 9 |  |  |  |  |  |  |  |
| COc1cc(Nc2nc(Cl)cc3c(-c4ccccc4)n[nH]c23)cc(OC)c1OC | 5.9 | 21.9 | 6.7 |  | 23.5 | 30.3 | 46.2 | 15 | 0.9 |  |
| Clc1cc2cn[nH]c2c(Nc2ccccc2)n1 | 34.2 | > 50 | 36.2 |  |  |  |  |  |  |  |
| c1ccc(Nc2nccc3cn[nH]c23)cc1 | > 50 | > 50 | > 50 |  |  |  |  |  |  |  |
